Here are results for seven compounds from patent US5556849A, “Ruthenium containing phthalocyanin photosensitizers” (priority 1991, dated 1996).

Data set [1] relates to Adherent cells (HeLa RCA. SKOV OVCAR). The data set is described as follows: Phototoxicity (Light): 3H-thymidine incorporation in adherent cells after irradiation, with dark cytotoxicity for PI. Type of data set: cell-based. To be noted: for PI (phototoxicity index): ratio of PC50 to cytotoxic concentration 50% (no light); for IC50: read-out: PC50 (phototoxic concentration 50%). As for the experimental part: The media is removed and the cells washed three times with D-PBS. and then covered with D-PBS (200 μl ) and exposed to light from the same source used in the singlet oxygen assay.
This follows the procedure for phototoxicity except that the cells are never exposed to light. The assay is relative to a non-treated control.
(§1) Compounds according to the invention were assessed and characterised by their light absorption maxima, and their molar extinction coefficients according to conventional test procedures. Most of the compound were tested for their biological activity according to conventional test procedures in the art. The PC50 represents phototoxic concentration 50%. which is the concentration of compound when exposed to a light dose as described herein, causes a 50% reduction in cancer cell growth vs an untreated control population. The phototoxicity index. PI, is the ratio of the PC50 to the cytotoxic concentration 50%. where the growth is reduced by 50% without a light dose being given.
PC50 is determined by a relatively simple in vitro assay on a cellular level, which is generally indicative of photosensitizing activity.
On the technique in general: Dividing cells build labelled thymidine or BrdU into new DNA.

Data set [2] is described as follows: Light absorption maxima and molar extinction coefficients. The format is physicochemical. As for the experimental part:
as §1

The test system of another data set is normal rat liver. The experiment in a line: Photodynamic threshold dose in normal rat liver, depth of necrosis. The format is in vivo, adult Wistat rats. The protocol:
The photodynamic threshold dose in normal rat liver was used as a model. This has been developed by Singh and Wilson at McMaster University and used to study both chloroaluminum phthalocyanine sulfonate (ASPc) and photofrin (Patterson, M S, et at, Photochern Photobiol, 51,343-349, 1990, and Farrell, T J, et at, Proc SPIE1426, 146-155, 1991).
1. Inject compound at 2.5 mg/ml into tail vein of adult Wistat rats at doses of 5, 10.20 mg/kg.
2. 24 hours later expose liver by laparotomy and irradiate surface at up to four locations with a 5 mm diameter lightbeam from an argon-dye laser operating at 650 nm: incident power =40 m Watt: incident fluenee rate =200 mW cm^-2 : treatment time =5 or 10 minutes (60. 120 Joules cm^-2).
3. 24 hours later inject Evans Blue iv, sacrifice at 15 minutes, section Liver through each radiation spot and measure depth of necrosis as indicated by dye exclusion.

The nature of data set [3]: Singlet oxygen generation by photo-degradation of nitrosoanaline dye. To be noted: 15 minutes of irradiation, 4° C.
[4] abbreviates: with light dose, 50% reduction in cancer cell growth vs untreated control, 24 h incubation with sensitizer.

On to “K2 [Ru(Pc)bis(triphenvlphosphine monosulfonate)]trihydrate [Compound A]”, for which the “PI (phototoxicity index)” value in data set [1] is on record as more than 100. Besides, in data set [1] (setting [4]), the IC50 stood at 1.14 µM. Further, the “ε (molar extinction coefficient)” value in data set [2] was 88200 M⁻¹ cm⁻¹. In addition, in data set [2] (in water (W)), the “λmax Q” value was determined as 650. In addition, the “depths of necrosis compared with previously studied agents” value with normal rat liver (at similar drug and light levels, Photofrin and AlSPc given ip) is “comparable to those with previously studied agents”. For the same compound, the “Depth of Necrosis” value with normal rat liver (dose 5 mg/kg iv, fluence 60 J cm^-2, 650 nm) came out at 1.86 ± 0.34 mm; in the data set on normal rat liver (dose 5 mg/kg iv, fluence 120 J cm^-2, 650 nm) it was 2.5 ± 0.0 mm; in the data set on normal rat liver (dose 10 mg/kg iv, fluence 60 J cm^-2, 650 nm), 2.16 ± 0.10 mm; in the data set on normal rat liver (dose 10 mg/kg iv, fluence 120 J cm^-2, 650 nm), 2.41 ± 0.16 mm; in the data set on normal rat liver (dose 20 mg/kg iv, fluence 60 J cm^-2, 650 nm) it was 1.66 ± 0.05 mm; in the data set with normal rat liver (dose 20 mg/kg iv, fluence 120 J cm^-2, 650 nm), 1.94 ± 0.04 mm. The “photodynamic activity in vivo” value in the data set with normal rat liver (in words) is listed as “photodynamically active in vivo”.
For aluminium phthalocyanine sulphonate, the “rate of singlet oxygen production” value in data set [3] is on record as “on the order of one or two logs better than some of the sensitizers listed”.
On to `NCCC(=O)[O-].NCCC(=O)[O-].[K+].[K+].c1ccc2c(c1)C1=NC3=NC(=Nc4c5ccccc5c5[n]4[Ru][n]4c(c6ccccc6c4=N5)=NC2=N1)c1ccccc13` [RuPc(β-ALA)2], for which the IC50 in data set [1] (setting [4]) is 1.9 µM. Further, in data set [2], the “ε (molar extinction coefficient)” value was determined as 105000 M⁻¹ cm⁻¹.
In the same order, the values of `Nc1ccc(O)c(C(=O)O)c1.Nc1ccc(O)c(C(=O)O)c1.c1ccc2c(c1)C1=NC3=NC(=Nc4c5ccccc5c5[n]4[Ru][n]4c(c6ccccc6c4=N5)=NC2=N1)c1ccccc13` [RuPc(5AS)2] are 2 µM and 66500 M⁻¹ cm⁻¹.
`O=S(=O)([O-])c1cccc(P(c2ccccc2)c2ccccc2)c1.O=S(=O)([O-])c1cccc(P(c2ccccc2)c2ccccc2)c1.[K+].[K+].c1ccc2cc3c(cc2c1)C1=NC2=NC(=Nc4c5cc6ccccc6cc5c5[n]4[Ru][n]4c(c6cc7ccccc7cc6c4=N5)=NC3=N1)c1cc3ccccc3cc12` [RuNc(TPPMS)2]: the “PI (phototoxicity index)” value in data set [1] is 1.6. In addition, the IC50 in data set [1] (setting [4]) is 2.7 µM. For the same compound, the “ε (molar extinction coefficient)” value in data set [2] stood at 54000 M⁻¹ cm⁻¹. Moreover, the “λmax Q” value in data set [2] (in water (W)) came out at 734.
With `Fc1c(F)c(F)c2c(c1F)C1=NC2=Nc2c3c(F)c(F)c(F)c(F)c3c3[n]2[Ru][n]2c(c4c(F)c(F)c(F)c(F)c4c2=NC2=NC(=N3)c3c(F)c(F)c(F)c(F)c32)=N1.O=C(O)c1cccnc1.O=C(O)c1cccnc1` [RuF16 Pc(Nic)2], the “PC50 (phototoxic concentration 50%)” value in data set [1] (setting [4]) was “Inactive”. The “ε (molar extinction coefficient)” value in data set [2] stood at 55700 M⁻¹ cm⁻¹.
As to `NCCS(=O)(=O)[O-].NCCS(=O)(=O)[O-].O.O.O.O.O.O.[Na+].[Na+].c1ccc2c(c1)C1=NC3=NC(=Nc4c5ccccc5c5[n]4[Ru][n]4c(c6ccccc6c4=N5)=NC2=N1)c1ccccc13` [RuPc(Tau)2 (Ex 3), Na2 [Ru(Pc)bis(taurine)]hexahydrate], in data set [1], the “PI (phototoxicity index)” value is given as more than 1.1. The IC50 in data set [1] (setting [4]) was found to be 9 µM. The “ε (molar extinction coefficient)” value in data set [2] was 79800 M⁻¹ cm⁻¹. The “λmax Q” value in data set [2] (in methanol (M)) amounted to 623; in data set [2] (in water (W)), 634.
